Results from ChEMBL document CHEMBL3044719, “Synthesis of pyrazole-based 1,5-diaryl compounds as potent anti-inflammatory agents” (2012).

Assays:
Rattus norvegicus [1] = assay: Anti-inflammatory activity in Rattus norvegicus Wistar albino (rat) assessed as growth of carrageenan-induced paw edema after 30 min (reference value: 1.27 +/- 0.043%); type: functional
Rattus norvegicus [2] = assay: Anti-inflammatory activity in Rattus norvegicus Wistar albino (rat) assessed as inhibition of carrageenan-induced paw edema after 180 min (reference value: 22.3%); type: functional
Rattus norvegicus [3] = assay: Anti-inflammatory activity in Rattus norvegicus Wistar albino (rat) assessed as inhibition of carrageenan-induced paw edema after 30 min (reference value: 30.1%); type: functional
Rattus norvegicus [4] = assay: Anti-inflammatory activity in Rattus norvegicus Wistar albino (rat) assessed as inhibition of carrageenan-induced paw edema after 90 min (reference value: 38.7%)
Rattus norvegicus [5] = assay: Anti-inflammatory activity in Rattus norvegicus Wistar albino (rat) assessed as growth of carrageenan-induced paw edema after 90 min (reference value: 1.36 +/- 0.070%); type: functional

SMILES | Activity (Rattus norvegicus [1]) [%] | inhibition (INH) (Rattus norvegicus [2]) [%] | inhibition (INH) (Rattus norvegicus [3]) [%] | inhibition (INH) (Rattus norvegicus [4]) [%] | Activity (Rattus norvegicus [5]) [%]
COC(=O)c1c(C)nn(-c2ccccc2)c1OCCCOc1c(C(=O)OC)c(C)nn1-c1ccccc1 | 1.34 | 17.9 | 15.1 | 24.4 | 1.49
COC(=O)c1c(C)nn(-c2ccccc2)c1OCCCN1C(=O)c2ccccc2C1=O | 1.25 | 1.7 | 5.9 | 4.8 | 1.39
CCOC(=O)c1c(C)nn(-c2ccccc2)c1OCCCN1C(=O)c2ccccc2C1=O | 1.11 | 39.3 | 38.9 | 44.7 | 1.18
COC(=O)c1c(C)nn(-c2ccccc2)c1OCCCn1c(C)cc(C)c(C#N)c1=O | 0.94 | 18.5 | 17.6 | 29.7 | 1.03
CCOC(=O)c1c(C)nn(-c2ccccc2)c1OCCCn1c(C)cc(C)c(C#N)c1=O | 1.05 | 20.4 | 22.4 | 28.5 | 1.16
COC(=O)c1c(C)nn(-c2ccccc2)c1OCCCOc1nc(C)cc(C)c1C#N | 0.81 | 24.9 | 16.8 | 28.7 | 0.92
CCOC(=O)c1c(C)nn(-c2ccccc2)c1OCCCOc1nc(C)cc(C)c1C#N | 1.22 | 16.8 | 21.4 | 24.6 | 1.18
CS(=O)(=O)Nc1ccc([N+](=O)[O-])cc1Oc1ccccc1 [NIMESULIDE] | 1.29 | 2.54 | 10.8 | 7.9 | 1.25
